Measurements taken from ChEMBL document CHEMBL4819039, “Taxonomy Driven Discovery of Polyketides from Aspergillus californicus” (2021).
In brackets after ≈: the same amount, converted by molar mass. Activity calls are given as the source filed them. No cut-off for these calls is given here.

Legend:
[1] = tested on: HL-60; test: Cytotoxicity against human HL-60 cells after 72 hrs by CCK-8 assay; assay type: functional, cell-based
[2] = tested on: Escherichia coli; test: Antibacterial activity against Escherichia coli ATCC 25922 assessed as inhibition of bacterial growth; assay type: functional
[3] = tested on: Staphylococcus aureus; test: Antibacterial activity against methicillin-resistance Staphylococcus aureus MB5393 assessed as inhibition of bacterial growth; assay type: functional
[4] = tested on: Staphylococcus aureus; test: Antibacterial activity against methicillin-sensitive Staphylococcus aureus ATCC 29213 assessed as inhibition of bacterial growth; assay type: functional
[5] = tested on: A2058; test: Cytotoxicity against human A2058 cells after 72 hrs by MTT assay; assay type: functional, cell-based
[6] = tested on: A549; test: Cytotoxicity against human A549 cells after 72 hrs by MTT assay; assay type: functional, cell-based
[7] = tested on: MIA PaCa-2; test: Cytotoxicity against human MIA PaCa-2 cells after 72 hrs by MTT assay; assay type: functional, cell-based
[8] = tested on: HepG2; test: Cytotoxicity against human HepG2 cells after 72 hrs by MTT assay; assay type: functional, cell-based
[9] = tested on: Klebsiella pneumoniae; test: Antibacterial activity against Klebsiella pneumoniae ATCC 700603 assessed as inhibition of bacterial growth; assay type: functional
[10] = tested on: MCF7; test: Cytotoxicity against human MCF7 cells after 72 hrs by MTT assay; assay type: functional, cell-based

Row | Compound | Activity [1] | MIC [2] [µg/mL] | MIC [3] [µg/mL] | MIC [4] [µg/mL] | Activity [5] | Activity [6] | Activity [7] | Activity [8] | MIC [9] [µg/mL] | Activity [10] | Activity [2] | Activity [9]
1 | CCCCC[C@H](O)C(=O)C[C@@H]1OC(=O)c2c(O)ccc(CC=C(C)C)c21 | inactive | > 64 | > 64 | > 64 | inactive | inactive | inactive | inactive | > 64 | inactive | – | –
2 | CCCCCC(=O)[C@@]1(O)C=Cc2c(CC=C(C)C)ccc(O)c2[C@@H]1O | inactive | > 64 | > 64 | > 64 | inactive | inactive | inactive | inactive | > 64 | inactive | – | –
3 | CCCCC[C@H](O)[C@@H](O)C[C@@H]1OCc2c(O)ccc(CC=C(C)C)c21 | inactive | > 64 | > 64 | > 64 | inactive | inactive | inactive | inactive | > 64 | inactive | – | –
4 | CCCCC[C@H](O)C(=O)C[C@H]1OC(=O)c2c(O)ccc(CC=C(C)C)c21 | inactive | > 64 | > 64 | > 64 | inactive | inactive | inactive | inactive | > 64 | inactive | – | –
5 | CCCCCC(=O)[C@]1(O)C=Cc2c(CC=C(C)C)ccc(O)c2[C@H]1O | inactive | > 64 | > 64 | > 64 | inactive | inactive | inactive | inactive | > 64 | inactive | – | –
6 | CCCCC[C@H](O)[C@@H](O)C[C@H]1OC(=O)c2c(O)ccc(CC=C(C)C)c21 | inactive | > 64 | > 64 | > 64 | inactive | inactive | inactive | inactive | > 64 | inactive | – | –
7 | CCCCC/C=C/C=C/c1cccc(O)c1CO | inactive | – | 48 (≈ 195 µM) | 48 (≈ 195 µM) | inactive | inactive | inactive | inactive | – | inactive | inactive | inactive
